# Key:
# KB = test: Cytotoxicity against human KB cells; format: functional, cell-based
# L1210 = test: Cytotoxicity against mouse L1210 cells; format: functional, cell-based
smiles,measurement,setting,value
C=C(C)[C@H](C)/C=C/[C@@H](C)[C@H]1CC[C@H]2C3=C[C@@H](O)[C@@]4(O)C[C@@H](O)CC[C@]4(C)[C@H]3CC[C@]12C [BIEMNASTEROL],IC50,KB,1.3 µg/mL
same,IC50,L1210,3 µg/mL

# — ChEMBL document CHEMBL1147397, “Biemnasterol, a new cytotoxic sterol with the rare 22,25-diene side chain, isolated from the marine sponge Biemna sp” (J Nat Prod, 1993)
